PubChem BioAssay (NCI)
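Interpolation was linear, between the two tested concentrations surrounding the appropriate level; five concentrations were tested over 48 hours in 96-well plates. GI50: concentration for 50% inhibition of growth. TGI marks complete inhibition of growth.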

Legend:
Assay in all cases: NCI tumour cell line growth inhibition, 48 h
UACC-257 melanoma = system: UACC-257 melanoma
M14 melanoma = system: M14 melanoma
EKVX NSCLC = system: EKVX NSCLC
NCI-H460 lung = system: NCI-H460 lung
MOLT-4 leukemia = system: MOLT-4 leukemia
SK-MEL-28 melanoma = system: SK-MEL-28 melanoma
SW-620 colon = system: SW-620 colon
OVCAR-3 ovarian = system: OVCAR-3 ovarian
T-47D breast = system: T-47D breast
MDA-MB-231 breast = system: MDA-MB-231 breast

Compound	TGI (UACC-257 melanoma) [µM]	TGI (M14 melanoma) [µM]	TGI (EKVX NSCLC) [µM]	TGI (NCI-H460 lung) [µM]	TGI (MOLT-4 leukemia) [µM]	TGI (SK-MEL-28 melanoma) [µM]	TGI (SW-620 colon) [µM]	TGI (OVCAR-3 ovarian) [µM]	GI50 (UACC-257 melanoma) [µM]	GI50 (M14 melanoma) [µM]	GI50 (EKVX NSCLC) [µM]	GI50 (NCI-H460 lung) [µM]	GI50 (MOLT-4 leukemia) [µM]	GI50 (OVCAR-3 ovarian) [µM]	GI50 (SK-MEL-28 melanoma) [µM]	GI50 (SW-620 colon) [µM]	GI50 (T-47D breast) [µM]	TGI (T-47D breast) [µM]	TGI (MDA-MB-231 breast) [µM]	GI50 (MDA-MB-231 breast) [µM]
NNC(=S)N/N=C(/C(=O)Nc1ccc([N+](=O)[O-])cc1)c1nc2ccc([N+](=O)[O-])cc2[nH]c1=O	> 100	> 100	> 100	> 100	> 100	> 100	> 100	–	–	–	–	–	–	–	–	–	–	–	–	–
O=C1NN=CN2C(=O)CCC12 (stereo not given)	> 100	> 100	> 100	> 100	> 100	> 100	> 100	> 100	–	–	–	–	–	–	–	–	–	–	–	–
COc1ccc2c(c1OC)C(=O)O[C@@H]2[C@H]1c2c(c(Br)c3c(c2OC)OCO3)CCN1C	> 100	25	> 100	> 100	> 100	> 100	> 100	40.8	7.76	3.3	41.8	3.6	4.09	10.6	> 100	5.37	80.5	> 100	–	–
O=C(O)c1cc(=O)c2cc(C(=O)c3cccs3)c(Cl)c(Cl)c2o1	> 100	> 100	> 100	> 100	> 100	> 100	> 100	> 100	–	–	–	–	–	–	–	–	–	–	–	–
COc1ccc(/C=N\O[Si](C)(C)C(C)(C)C)cc1O[Si](C)(C)C(C)(C)C	43.3	36.3	41.6	46.3	36.5	–	36.9	31	–	–	–	–	–	–	–	–	–	–	–	–
COc1ccc(OC)c(/C=N/N=C2\C(=O)Nc3c(Cl)cc(Cl)cc32)c1	> 100	> 100	> 100	> 100	> 100	> 100	> 100	> 100	–	–	–	–	–	–	–	–	–	–	> 100	–
Cc1ccc(-c2c3c(N)c4c(nc3nc3c2c(C)nn3-c2ccccc2)CCC4)cc1	28.8	20.1	–	4.44	7.94	9.69	9.57	3.86	14.1	6.25	–	2.02	2.81	1.96	4.44	2.6	2.18	5.08	3.98	1.85
O=C(O)C1CC2CC(=O)C1C2 (stereo not given)	> 100	> 100	> 100	> 100	> 100	> 100	> 100	> 100	–	–	–	–	–	–	–	–	–	–	–	–
O=C(CC(=O)c1ccccc1)C(=O)NC12CC3CC(CC(C3)C1)C2	> 100	> 100	> 100	> 56.9	> 100	> 100	> 58.7	> 100	–	–	–	–	–	–	–	–	–	–	–	–
O=C(CC(=O)C1CCOC1=O)C(=O)Nc1ccc(Cl)cc1 (stereo not given)	> 100	> 100	> 100	> 100	–	> 100	> 100	> 100	–	–	–	–	–	–	–	–	–	–	–	–
O=c1[nH]cnc2c1ncn2CCCCO	> 100	> 100	> 100	> 100	> 100	> 100	> 100	> 100	–	–	–	–	–	–	–	–	–	–	–	–
NS(=O)(=O)c1ccc(N2N=C(c3cccs3)CC2c2ccccc2O)cc1 (stereo not given)	7.97	4.1	–	4.24	16.9	8.62	4.83	2.64	1.47	1.07	–	1.16	1.27	0.933	2.12	1.16	2.24	18.8	3.19	0.972
Cc1cccc(N=C2NC(=O)C(CC(=O)Nc3ccccc3Cl)S2)c1 (stereo not given)	> 100	> 100	> 100	> 100	> 100	> 100	> 100	> 100	–	–	–	–	–	–	–	–	–	–	–	–
OC1c2ccccc2C2C(O)c3ccccc3C12 (stereo not given)	> 100	> 100	> 100	> 100	> 100	> 100	> 100	> 100	–	–	–	–	–	–	–	–	–	–	–	–
COc1cc(/C=C\c2ccc(Cl)cc2)cc(OC)c1OC	39.2	22.7	> 87.5	> 100	6.87	> 67.5	> 100	0.437	–	–	–	–	–	–	–	–	–	–	–	–
COC1C(O)C(C)OC(O[C@@H]2C[C@H]3CC[C@@H]4[C@H](CC[C@]5(C)[C@@H](C6=CC(=O)OC6)CC[C@]45O)[C@@]3(C)[C@H](O)C2)C1O (stereo not given in full)	1.07	0.252	0.168	0.0222	< 0.0273	0.819	–	0.0838	–	–	–	–	–	–	–	–	–	0.817	> 100	–
Cc1cn(Cc2ccccc2CCl)c(=O)n(Cc2ccccc2CCl)c1=O	4.86	3.28	5.13	4.67	–	5.49	6.03	3.65	2.25	1.69	2.26	1.98	–	1.85	2.21	2.14	–	–	3.57	1.86
O=C1NN=C(c2ccc([N+](=O)[O-])cc2)C1n1nc(-c2ccccc2)c2ccccc2c1=O (stereo not given)	> 100	> 100	> 100	> 100	> 100	> 100	> 100	> 100	–	–	–	–	–	–	–	–	–	–	–	–
CN(C)N=Nc1nn(C(=O)Nc2ccc(Cc3ccccc3)cc2)c2ccccc12	> 100	> 100	–	> 100	> 100	> 100	> 100	> 100	0.862	0.168	–	0.111	7.47	11.8	–	0.199	0.0719	> 100	> 100	1.37
CCCCCCCCCCCCCCCCCc1nnc(N)o1	> 100	> 100	–	> 100	> 100	> 100	> 100	> 100	–	–	–	–	–	–	–	–	–	–	–	–
